From patent publication US5236927A, “Anti-cancer quinazoline derivatives” (National Research Development Corporation, priority 1985, dated 1993)
Where “and” joins values, the source holds several entries; their conditions need not be identical. Identical values can stand only once. Like-named read-outs stand apart in the source and are kept apart here.

Tests used:
[1] = Comparative pharmacokinetics in the mouse (plasma, liver, kidney levels); assay type: in vivo; conditions: for concentration at 3 h / concentration at 6 h: plasma, ip, read-out: Plasma quinazoline conc.
Procedure: 3 Hours and 6 hours after administration groups of three mice at each dose level were sacrificed by exsanguination via cardiac puncture. Plasma was prepared and the livers and kidneys excised and weighed.

[2] = tested on: alanine transaminase; experiment: Comparative hepatotoxicity in the mouse (plasma alanine transaminase); assay type: in vivo
Procedure: […]. Plasma was prepared and the livers and kidneys excised and weighed.
Samples of plasma were also analysed for the enzyme alanine transaminase, an indicator of hepatotoxicity. […]

[3] = Urinary and faecal elimination in the mouse; assay type: in vivo; conditions: 100 mg/kg i.p.; for dose excreted at 48 h: ip, 0-48 h
[4] = tested on: L1210 cells; experiment: Reversal of L1210 toxicity by co-incubation with thymidine; assay type: cell-based
Procedure: Cells in the log phase of growth were diluted to about 5×10^4 /ml and duplicate 5ml aliquots were added to 50 ml tissue culture flasks containing the appropriate additions (diluted in RPMI and sterilised by Millipore filtration). Cell counts after 48 hours of incubation were obtained by Coulter counting.

[5] = tested on: alanine transaminase; experiment: Hepatotoxicity in rats (plasma alanine transaminase); conditions: 100 mg/kg 1 h i.v. infusion
Procedure: (§2) During and after the infusion blood and bile samples were collected. Four hours after the experiment the rats were sacrificed and the urine collected from the bladder and the liver and kidneys removed.
(§3) Samples of plasma were also analysed for alanine transaminase.

[6] = tested on: de novo thymidylate synthesis in L1210 cells; experiment: Incorporation of 3H dUrd into acid-precipitable material in L1210 cells; assay type: cell-based; conditions: Mus musculus, L1210, 10 min; 10 uM, by about 10 minutes
Procedure: L1210 cells were used at a concentration of 10^5 /ml. Incubation at 37° C. was in complete RPMI tissue culture medium plus or minus drugs for the lengths of time indicated on the graphs. After this time ^3 H dUrd was added at a concentration of 2 uCi/ml (about 0.2 uM). Three 1 ml aliquots were removed after 20 minutes, placed on ice and mixed with 1 ml of ice-cold phosphate buffered saline (PBS). Precipitation onto glass-fibre discs was performed by trichloroacetic acid washing followed by PBS. […] This is an indirect measurement of de novo thymidylate synthesis in whole cells. […] These concentrations are 10 times the ID50 values.

[7] = tested on: alanine transaminase; conditions: rat, in vivo
Procedure: as §2, §3

[8] = tested on: L1210/C15 cells; experiment: L1210/C15 cell culture growth inhibition (overproduces TS 45-fold); assay type: cell-based; conditions: 48 hours; at 100 uM
Procedure: Cell counts after 48 hours of incubation were obtained by Coulter counting.

[9] = Toxicity and weight loss in treated L1210 tumour-bearing mice; assay type: in vivo, mouse
Procedure: (§1) The L1210 tumour is carried routinely in DBA2 mice at the Institute of Cancer Research (L1210/CBRI). For experiments 5×10^4 cells were implanted i.p. into male C57Bl×DBA2 F1 hybrid mice 3 days prior to treatment. […] The control group consisted of 9 mice and treated groups 6 or 7 mice.

[10] = tested on: L1210 tumour; experiment: Treatment of L1210 tumour-bearing mice; assay type: in vivo, mouse
Procedure: as §1

[11] = Pharmacokinetics in rats; conditions: 100 mg/kg 1 h i.v. infusion; for concentration: read-out: Plasma levels
Procedure: as §2, §3

[12] = 100 mg/kg i.p., 3 h post-treatment
[13] = 100 mg/kg i.p., 6 h post-treatment
[14] = 300 mg/kg i.p., 3 h post-treatment
[15] = 300 mg/kg i.p., 6 h post-treatment
[16] = 500 mg/kg i.p., 3 h post-treatment
[17] = 500 mg/kg i.p., 6 h post-treatment
[18] = compound 5 uM + 10 uM thymidine

Compound `C#CCN(Cc1ccc2nc[nH]c(=O)c2c1)c1ccc(C(=O)N[C@@H](CCC(=O)O)C(=O)O)cc1` [CB3804, N-(4-(N-((3,4-dihydro-4-oxo-6-quinazolinyl)methyl)prop-2-ynylamino)benzoyl)-L-glutamic acid] has a Kidney quinazoline level [1, 12] of under 0.1 % dose administered, a Liver quinazoline level [1, 12] of under 0.1 % dose administered and a Kidney quinazoline level [1, 13] of under 0.1 % dose administered. The Liver quinazoline level [1, 13] was under 0.1 % dose administered, the Kidney quinazoline level [1, 14] was under 0.03 % dose administered and the Liver quinazoline level [1, 14] was under 0.03 % dose administered. For the same compound, the Kidney quinazoline level [1, 15] was under 0.03 % dose administered, the Liver quinazoline level [1, 15] was under 0.03 % dose administered and the Kidney quinazoline level [1, 16] was under 0.1 % dose administered. For the same compound, the Liver quinazoline level [1, 16] was under 0.2 % dose administered, the Kidney quinazoline level [1, 17] was under 0.1 % dose administered and the Liver quinazoline level [1, 17] was under 0.2 % dose administered. For the same compound, the “detection in plasma, liver and kidneys” value ([1]; mice, 3 and 6 hours after i.p. dose, for CB3804 except plasma 3 h at 500 mg/kg) was “below the limit of detection”, the “accumulation in the kidneys” value ([1]; mouse, in vivo) was “does not apparently accumulate in the kidneys” and the concentration at 3 h ([1]; mouse, 100 mg/kg i.p., 3 h post-treatment) was under 5 µM. It also gave a concentration at 6 h ([1]; mouse, 100 mg/kg i.p., 6 h post-treatment) of under 5 µM, a concentration at 3 h ([1]; mouse, 300 mg/kg i.p., 3 h post-treatment) of under 5 µM and a concentration at 6 h ([1]; mouse, 300 mg/kg i.p., 6 h post-treatment) of under 5 µM. For the same compound, the concentration at 3 h ([1]; mouse, 500 mg/kg i.p., 3 h post-treatment) was 5 µM, the concentration at 6 h ([1]; mouse, 500 mg/kg i.p., 6 h post-treatment) was under 5 µM and the “Plasma alanine transaminase level” value [2, 12] was 19 ± 3 U/L. The “Plasma alanine transaminase level” value [2, 13] was 10 ± 6 U/L, the “Plasma alanine transaminase level” value [2, 14] was 10 ± 4 U/L and the “Plasma alanine transaminase level” value [2, 15] was 8 ± 3 U/L. For the same compound, the “Plasma alanine transaminase level” value [2, 16] was 16 ± 3 U/L, the “Plasma alanine transaminase level” value [2, 17] was 16 ± 2 U/L and the “Levels of alanine transaminase (in words)” value ([2]; mice i.p., normal range 5-25U/l) was “within the normal range”. For the same compound, the hepatotoxicity ([2]; mice, at the doses studied) was “not hepatotoxic”, the “bioavailability following i.p. administration” value [3] was “satisfactory bioavailability” and the “components in faeces which may represent metabolites” value [3] was “two components were observed in faeces”. For the same compound, the dose excreted at 48 h ([3]; faeces, read-out: Faecal excretion of the parent compound) was 15 ± 13%, the dose excreted at 48 h ([3]; urine, read-out: Urinary excretion of the parent compound) was 4 ± 1% and the “Cell count at 48 hours as % control” value [4, 18] was 98 % control. The “Reversal of L1210 toxicity by thymidine” value [4, 18] was “reversal was complete”, the “Cell count at 48 hours as % control” value ([4]; compound 50 uM + 10 uM thymidine) was 75 % control and the “plasma levels of alanine transaminase (in words)” value ([5]; rats) was “did not”. For the same compound, the “Peak plasma alanine transaminase” value ([5]; individual rats) was 57 % pre treatment and 143 % pre treatment, the activity at 10 µM [6] was under 20% and the hepatotoxicity [7] was “not hepatotoxic”. The “L1210/C15 ID50” value [8] was “no inhibition”, the signs of toxicity ([9]; 200 mg/kg i.p. daily ×5) was “no obvious signs of toxicity” and the weight loss ([9]; 200 mg/kg i.p. daily ×5) was “no weight loss occurred”. The signs of toxicity ([9]; dose levels up to 200 mg/kg) was “No signs of toxicity were apparent”, the anti-tumour effectiveness ([10]; 25 mg/kg i.p. daily ×5, versus other treatments) was “much less effective” and the “"cures" (survived >100 days)” value ([10]; 50 mg/kg i.p. daily ×5) was “about 65%”. The “"cures" (survived >100 days)” value ([10]; 100 mg/kg i.p. daily ×5) was “about 80%”, the “anti-tumour activity compared with CB3717” value ([10]; in vivo) was “comparable anti-tumour activity” and the “detection in liver or kidneys at the end of the experiment” value ([11]; rats) was “no CB3804 could be detected”. The Kidney level ([11]; individual rats) was under 0.5 % dose, the Liver level ([11]; individual rats) was under 0.5 % dose and the Cumulative biliary excretion ([11]; individual rats, 100 mg/kg) was 80 % dose. It also gave a Cumulative urinary excretion ([11]; individual rats, 100 mg/kg) of 7 % dose, a dose excreted ([11]; rat, bile, iv, 100 mg/kg, Cumulative biliary excretion, individual rats) of 72% and a concentration at 1 h ([11]; rat, plasma, iv, 100 mg/kg, Plasma levels, end inf, individual rats) of 274 µM. The concentration at 2 h ([11]; rat, plasma, iv, 100 mg/kg, Plasma levels, inf + 1 h, individual rats) was 10 µM, the concentration at 3 h ([11]; rat, plasma, iv, 100 mg/kg, Plasma levels, inf + 2 h, individual rats) was under 2000 nM and the concentration at 4 h ([11]; rat, plasma, iv, 100 mg/kg, Plasma levels, inf + 3 h, individual rats) was under 2000 nM. The concentration at 5 h ([11]; rat, plasma, iv, 100 mg/kg, Plasma levels, inf + 4 h, individual rats) was under 2000 nM, the concentration at 0.5 h ([11]; rat, plasma, iv, 100 mg/kg, Plasma levels, mid inf, individual rats) was 275 µM and the dose excreted ([11]; rat, urine, iv, 100 mg/kg, Cumulative urinary excretion, individual rats) was 11%. The concentration ([11]; end inf, individual rats, 100 mg/kg, 60 min) was 256 µM, the concentration ([11]; inf + 1 h, individual rats, 120 min, 100 mg/kg, 120 min) was 19 µM and the concentration ([11]; inf + 2 h, individual rats, 180 min) was under 2 µM. The concentration ([11]; inf + 3 h, individual rats, 240 min) was under 2 µM, the concentration ([11]; inf + 4 h, individual rats, 300 min) was under 2 µM and the concentration ([11]; mid inf, individual rats, 30 min, 100 mg/kg, 30 min) was 258 µM.
